Data published in patent publication US20050197336A1 (Miikana Therapeutics Corporation, priority 2004, published 2005).

Tests used:
[1] = system: Histone deacetylase (HDAC), HeLa cell nuclear extract; experiment: In vitro fluorescent histone deacetylase assay (Biomol kit, HeLa cell nuclear extract); type: biochemical; conditions: compound at 100 μM; HeLa cell nuclear extract as HDAC source; substrate 50 μM; 10 min at room temperature
Description: Histone deacetylase (HDAC) activity assays were performed using the HDAC fluorescent activity assay/drug discovery kit (Biomol Research Laboratories, Plymouth Meeting, Pa.) essentially according to the manufacturer's instructions. The included HeLa cell nuclear extract, which contains a mosaic of HDAC enzymes and other nuclear factors, was used as the source of HDAC activity. The final substrate concentration in the assay mixture was 50 μM. The reaction was allowed to proceed for 10 min at room temperature before stopping the reaction. Test compounds were prepared as 20 mM stock solutions in DMSO (Molecular Biology grade, Sigma-Aldrich Co. St. Louis, Mo.) and stored at −70° C. Serial dilutions of test compounds were prepared in assay buffer immediately prior to testing. DMSO was determined in a separate trial to have no significant effect on the activity of this assay at concentrations up to 5%; the final DMSO concentration in the wells was no more than 2% and therefore DMSO effects were safely neglected. Assays were performed in white polystyrene 96-well half-area assay plates (Corning, Corning, N.Y.) and measured on a Wallace 1420 fluorescent plate reader (Wallac Oy, Turku, Finland) with an excitation wavelength of 355 nm, an emission wavelength of 460 nm, and a 1 sec signal averaging time.

MCF7 cells = experiment: Whole cell cytotoxicity assay: Sulforhodamine B; type: cell-based, human; conditions: Homo sapiens; compound at 100 μM; MCF7 cell growth; 48 hours with drug; SRB staining
Description: The following procedure can be found on the Developmental Therapeutics Program NCI/NIH web site at http://dtp.nci.nih.gov/brancehes/btb/ivclsp.html.
1. Human tumor cell lines of HT29, A549 and MCF7 are grown in DMEM containing 10% fetal bovine serum and 2 mM L-glutamine. Cells are plated in a 96 well plate at a density of 5000 cells per well in 100 μL of growth medium and incubated at 37° C., 5% CO2, for 24 hours prior to the addition of experimental compounds.
2. Experimental drugs are solubilized in DMSO for a final concentration of 20 mM immediately prior to use. Drugs are further diluted in growth media for a total of nine drug concentrations and a growth control. At the 24 hour time point, one plate of cells is fixed in situ with TCA as a measurement of the cell population at time zero, or the time of drug addition.
3. The plates are further incubated with drug for an additional 48 hours.
4. The cells are fixed in situ by gently aspirating off the culture media and then adding 50 μL of ice cold 10% TCA per well and incubated at 4° C. for 60 minutes. The plates are washed with tap water five times and allowed to air dry for 5 minute.
5. 50 μL of a 0.4% (w/v) Sulforhodamine B solution in 1% (v/v) acetic acid is added per well and incubated for 30 minutes at room temperature.
6. Following staining, plates are washed five times with 1% acetic acid to remove any unbound dye and then allowed to air dry for 5 minutes.
7. Stain is solubilized with 100 μL of 10 mM Tris pH 10.5 per well and placed on an orbital rotator for 5 minutes.
8. Absorbance is read at 570 nm.

O=C(NO)c1cnc(N2CCN(S(=O)(=O)c3ccc(-c4ccccc4)cc3)CC2)s1 [Example 9, 2-[4-(biphenyl-4-sulfonyl)-piperazin-1-yl]-thiazole-5-carboxylic acid hydroxyamide]
% inhibition HDAC @ 100 μM [1]: 97% | inhibition at 100 µM (MCF7 cells): 97.7%

CN(C)c1cccc(-c2ccc(S(=O)(=O)N3CCN(c4ncc(C(=O)NO)s4)CC3)cc2)c1 [Example 71, 2-[4-(3′-(dimethylamino)-1,1′-biphenylsulfonyl)piperazin-1-yl]-1,3-thiazole-5-carboxylic acid hydroxyamide]
inhibition at 100 µM (MCF7 cells): 97.2%

O=C(NO)c1cnc(N2CCN(S(=O)(=O)c3ccccc3C(F)(F)F)CC2)s1 [Example 37, 2-[4-(2-trifluoromethylphenylsulfonyl)-piperazin-1-yl]-thiazole-5-carboxylic acid hydroxyamide]
% inhibition HDAC @ 100 μM [1]: 99% | inhibition at 100 µM (MCF7 cells): 98%

CN(C)Cc1cccc(-c2ccc(S(=O)(=O)N3CCN(c4ncc(C(=O)NO)s4)CC3)cc2)c1.Cl [Example 74]
% inhibition HDAC @ 100 μM [1]: 100% | inhibition at 100 µM (MCF7 cells): 97.3%

O=C(NO)c1cnc(N2CCN(S(=O)(=O)c3ccc(-c4cccc(F)c4)cc3)CC2)s1 [Example 61]
% inhibition HDAC @ 100 μM [1]: 95% | inhibition at 100 µM (MCF7 cells): 92.2%

O=C(NO)c1cnc(N2CCN(S(=O)(=O)c3ccc4c(c3)CCO4)CC2)s1 [Example 42, 2-[4-(2,3-dihydrobenzofuransulfonyl)-piperazin-1-yl]-thiazole-5-carboxylic acid hydroxyamide]
inhibition at 100 µM (MCF7 cells): 90%

O=C(NO)c1cnc(N2CCN(S(=O)(=O)c3cccc(CN4CCCC4)c3)CC2)s1 [Example 98]
% inhibition HDAC @ 100 μM [1]: 98% | inhibition at 100 µM (MCF7 cells): 92.2%

Cc1noc(C)c1S(=O)(=O)N1CCN(c2ncc(C(=O)NO)s2)CC1 [Example 27, 2-[4-(3,5-dimethylisoxazolesulfonyl)-pipiperazin-1-yl]-thiazole-5-carboxylic acid hydroxyamide]
% inhibition HDAC @ 100 μM [1]: 99% | inhibition at 100 µM (MCF7 cells): 88.5%

O=C(NO)c1cnc(N2CCN(S(=O)(=O)c3ccc(Cl)c(Cl)c3)CC2)s1 [Example 15, 2-[4-(3,4-dichlorolphenylsulfonyl)-piperazin-1-yl]-thiazole-5-carboxylic acid hydroxyamide]
inhibition at 100 µM (MCF7 cells): 88.5%

O=C(NO)c1cnc(N2CCN(S(=O)(=O)c3ccc(-c4ccccc4Cl)cc3)CC2)s1 [Example 58, 2-{4-[(2′-chloro-1,1′-biphenyl-4-yl)sulfonyl]piperazin-1-yl}-1,3-thiazole-5-carboxylic acid hydroxyamide]
% inhibition HDAC @ 100 μM [1]: 95% | inhibition at 100 µM (MCF7 cells): 97.6%

CS(=O)(=O)c1ccc(S(=O)(=O)N2CCN(c3ncc(C(=O)NO)s3)CC2)cc1 [Example 19, 2-[4-(4-methylsufonylphenylsulfonyl)-piperazin-1-yl]-thiazole-5-carboxylic acid hydroxyamide]
% inhibition HDAC @ 100 μM [1]: 99% | inhibition at 100 µM (MCF7 cells): 76.5%

C=CCN(C)Cc1cccc(-c2ccc(S(=O)(=O)N3CCN(c4ncc(C(=O)NO)s4)CC3)cc2)c1.Cl [Example 79]
% inhibition HDAC @ 100 μM [1]: 99% | inhibition at 100 µM (MCF7 cells): 98%

CC1CCN(Cc2cccc(-c3ccc(S(=O)(=O)N4CCN(c5ncc(C(=O)NO)s5)CC4)cc3)c2)CC1.Cl [Example 76]
% inhibition HDAC @ 100 μM [1]: 99% | inhibition at 100 µM (MCF7 cells): 98%

O=C(NO)c1cnc(N2CCN(S(=O)(=O)c3ccc(CN4CCCC4)cc3)CC2)s1 [Example 105]
% inhibition HDAC @ 100 μM [1]: 99% | inhibition at 100 µM (MCF7 cells): 93%

O=C(NO)c1cnc(N2CCN(S(=O)(=O)c3ccc(-c4cccc(Cl)c4)cc3)CC2)s1 [Example 57, 2-{4-[(3′-chloro-1,1′-biphenyl-4-yl)sulfonyl]piperazin-1-yl}-1,3-thiazole-5-carboxylic acid hydroxyamide]
% inhibition HDAC @ 100 μM [1]: 93% | inhibition at 100 µM (MCF7 cells): 68.6%

O=C(NO)c1cnc(N2CCN(S(=O)(=O)c3ccc(F)c(F)c3)CC2)s1 [Example 36, 2-[4-(3,4-difluorophenylsulfonyl)-piperazin-1-yl]-thiazole-5-carboxylic acid hydroxyamide]
% inhibition HDAC @ 100 μM [1]: 98% | inhibition at 100 µM (MCF7 cells): 98.2%

O=C(NO)c1cnc(N2CCN(S(=O)(=O)c3ccc(N4CCCC4)cc3)CC2)s1 [Example 13, 2-[4-(4-pyrolidinylbenzenesulfonyl)-piperazin-1-yl]-thiazole-5-carboxylic acid hydroxyamide]
% inhibition HDAC @ 100 μM [1]: 99% | inhibition at 100 µM (MCF7 cells): 98.9%

Cc1cc(F)ccc1S(=O)(=O)N1CCN(c2ncc(C(=O)NO)s2)CC1 [Example 41, 2-[4-(4-fluoro-2-methylphenylsulfonyl)-piperazin-1-yl]-thiazole-5-carboxylic acid hydroxyamide]
% inhibition HDAC @ 100 μM [1]: 98% | inhibition at 100 µM (MCF7 cells): 98.1%

O=C(NO)c1cnc(N2CCN(S(=O)(=O)c3ccc(-c4ccc[nH]4)cc3)CC2)s1 [Example 67, 2-(4-{[4-(1H-pyrrol-2-yl)phenyl]sulfonyl}piperazin-1-yl)-1,3-thiazole-5-carboxylic acid hydroxyamide]
inhibition at 100 µM (MCF7 cells): 98%

O=C(NO)c1cnc(N2CCN(S(=O)(=O)c3ccc(-n4cccn4)cc3)CC2)s1 [Example 101, 2-[4-(4-pyrazolylbenzenesulfonyl)-piperazin-1-yl]-thiazole-5-carboxylic acid hydroxyamide]
inhibition at 100 µM (MCF7 cells): 98.1%

CC(=O)c1ccc(S(=O)(=O)N2CCN(c3ncc(C(=O)NO)s3)CC2)cc1 [Example 7, 2-[4-(4-acetyl-benzenesulfonyl)-piperazin-1-yl]-thiazole-5-carboxylic acid hydroxyamide]
inhibition at 100 µM (MCF7 cells): 83.3%

O=C(NO)c1cnc(N2CCN(S(=O)(=O)c3ccccc3Cl)CC2)s1 [Example 17, 2-[4-(2-chlorophenalsulfonyl)-piperazin-1-yl]-thiazole-5-carboxylic acid hydroxyamide]
inhibition at 100 µM (MCF7 cells): 97.8%

O=C(NO)c1cnc(N2CCN(S(=O)(=O)c3cc(F)cc(F)c3)CC2)s1 [Example 52, 2-[4-(3,5-difluorophenylsulfonyl)-piperazin-1-yl]-thiazole-5-carboxylic acid hydroxyamide]
inhibition at 100 µM (MCF7 cells): 97.3%

O=C(NO)c1cnc(N2CCN(S(=O)(=O)c3ccc(Cl)cc3)CC2)s1 [Example 54, 2-[4-(chlorophenalsulfonyl)-piperazin-1-yl]-thiazole-5-carboxylic acid hydroxyamide]
inhibition at 100 µM (MCF7 cells): 97.1%

CCc1ccc(S(=O)(=O)N2CCN(c3ncc(C(=O)NO)s3)CC2)cc1 [Example 100, 2-[4-(4-Ethylbenzenesulfonyl)piperazin-1-yl]-thiazole-5-carboxylic acid hydroxyamide]
inhibition at 100 µM (MCF7 cells): 96.8%

CN(C)CCN(C)Cc1cccc(-c2ccc(S(=O)(=O)N3CCN(c4ncc(C(=O)NO)s4)CC3)cc2)c1 [Example 85, 2-{4-[3′-{[(2-(dimethylamino)ethyl)(methyl)amino]methyl}-1,1′-biphenylsulfonyl]piperazin-1-yl}-1,3-thiazole-5-carboxylic acid hydroxyamide]
inhibition at 100 µM (MCF7 cells): 97.5%

CS(=O)(=O)Nc1ccc(-c2ccc(S(=O)(=O)N3CCN(c4ncc(C(=O)NO)s4)CC3)cc2)cc1 [Example 70, 2-[4-(4′-methylsulfonylamino-1,1′-biphenylsulfonyl)piperazin-1-yl]-1,3-thiazole-5-carboxylic acid hydroxyamide]
inhibition at 100 µM (MCF7 cells): 83.6%

O=C(NO)c1cnc(N2CCN(S(=O)(=O)c3ccc(-c4ccc(C(=O)N5CCOCC5)cc4)cc3)CC2)s1 [Example 69, 2-[4-(4′-(morpholin-4-ylcarbonyl)-1,1′-biphenylsulfonyl)piperazin-1-yl]-1,3-thiazole-5-carboxylic acid hydroxyamide]
inhibition at 100 µM (MCF7 cells): 87.7%

O=C(NO)c1cnc(N2CCN(S(=O)(=O)c3ccc(C(F)(F)F)cc3)CC2)s1 [Example 5, 2-[4-(4-trifluoromethyl-benzenesulfonyl)-piperazin-1-yl]-thiazole-5-carboxylic acid hydroxyamide]
inhibition at 100 µM (MCF7 cells): 97.9%

O=C(NO)c1cnc(N2CCN(S(=O)(=O)c3ccc4c(c3)OCCO4)CC2)s1 [Example 44, 2-[4-(3,4-benzodioxansulfonyl)-piperazin-1-yl]-thiazole-5-carboxylic acid hydroxyamide]
inhibition at 100 µM (MCF7 cells): 91.7%
